Data on 11 compounds can be found in patent publication US20240116885A1, “BENZOTHIAZOLE AND QUINOLINE DERIVATIVES AND THEIR USE” (Shanghai Yao Yuan Biotechnology Co., Ltd., priority 2020, published 2024).

Counter-ions that a name gives are not always drawn.

In one assay the target is ALPK1 (Homo sapiens (Human), UniProt Q96QP1). Put plainly: ALPK1 in vitro kinase assay (HTRF, TIFA phosphorylation). Type of assay: biochemical. The settings on record: ADP-Heptose activated ALPK1. The method, then: ALPK1 kinase activity was measured in an in vitro assay using ADP-Heptose as the ALPK1 ligand and activator of its kinase activity and TIFA protein as the ALPK1 phosphorylation substrate. Since phosphorylated TIFA proteins oligomerize, Homogeneous Time-Resolved Fluorescence (HTRF) was used to measure protein:protein interaction between HA-tagged TIFA proteins as an indicator of TIFA phosphorylation.
Chain of ALPK1 (Q96QP1 whole entry): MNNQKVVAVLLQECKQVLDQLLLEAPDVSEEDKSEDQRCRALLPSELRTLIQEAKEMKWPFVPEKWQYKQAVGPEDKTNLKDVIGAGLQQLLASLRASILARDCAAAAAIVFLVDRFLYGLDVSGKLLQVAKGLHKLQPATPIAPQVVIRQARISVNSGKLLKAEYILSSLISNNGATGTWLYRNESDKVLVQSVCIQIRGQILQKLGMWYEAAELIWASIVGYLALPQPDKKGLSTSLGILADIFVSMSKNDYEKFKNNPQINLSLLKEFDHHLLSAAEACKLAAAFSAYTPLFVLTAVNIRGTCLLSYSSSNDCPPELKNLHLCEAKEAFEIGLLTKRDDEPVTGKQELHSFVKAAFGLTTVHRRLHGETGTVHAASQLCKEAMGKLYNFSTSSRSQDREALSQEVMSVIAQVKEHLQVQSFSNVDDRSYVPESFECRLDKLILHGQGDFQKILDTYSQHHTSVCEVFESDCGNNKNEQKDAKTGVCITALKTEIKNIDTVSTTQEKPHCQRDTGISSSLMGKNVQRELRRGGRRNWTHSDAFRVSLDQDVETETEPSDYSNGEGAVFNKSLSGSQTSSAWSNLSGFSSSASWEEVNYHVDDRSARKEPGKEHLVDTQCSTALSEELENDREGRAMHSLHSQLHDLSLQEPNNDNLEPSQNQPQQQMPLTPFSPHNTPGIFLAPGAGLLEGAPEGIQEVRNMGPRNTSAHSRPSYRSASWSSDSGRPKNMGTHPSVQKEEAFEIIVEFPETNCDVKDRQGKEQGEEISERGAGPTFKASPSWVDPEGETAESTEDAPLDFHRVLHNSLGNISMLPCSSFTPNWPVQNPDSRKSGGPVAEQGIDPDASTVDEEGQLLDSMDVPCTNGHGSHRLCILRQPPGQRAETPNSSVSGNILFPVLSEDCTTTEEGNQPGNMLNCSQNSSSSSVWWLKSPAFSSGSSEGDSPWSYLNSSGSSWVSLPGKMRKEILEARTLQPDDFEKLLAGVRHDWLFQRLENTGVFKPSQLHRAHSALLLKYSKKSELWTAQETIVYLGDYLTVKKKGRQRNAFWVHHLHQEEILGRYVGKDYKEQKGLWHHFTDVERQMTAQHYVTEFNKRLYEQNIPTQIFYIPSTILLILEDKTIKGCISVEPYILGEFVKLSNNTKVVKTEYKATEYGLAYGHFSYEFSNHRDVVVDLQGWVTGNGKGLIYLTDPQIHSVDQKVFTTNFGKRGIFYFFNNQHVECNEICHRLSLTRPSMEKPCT
In brief, dose-response studies were performed with HEK293 cells cultured in Dulbecco's Modified Eagle Medium (DMEM) supplemented 10% fetal bovine serum (FBS, Hyclone™) containing antibiotics (pen/strep, G418) in 384-well assay plates. Each well contained 0.1 mg TIFA, ALPK1 (2 nM final concentration in reaction mixture) and kinase buffer (100 mM of HEPES pH 7.4, 4 mM DTT, 40 mM MgCl2, 20 mM of β-Glycerol phosphate disodium salt, 0.4 mM of Na3VO4, 0.16 mg/mL). Titrations of the test compounds were prepared in dimethylsulphoxide (DMSO). The reaction was initiated by addition of ATP and ADP-Heptose.
For HTRF, samples were incubated with a Tb cryptate-labeled anti-HA antibody for capturing HA-tagged proteins according to the manufacturer's instructions (PerkinElmer™, CisBio™) and the fluorescence signal was quantified (Tecan Infinite F NANO+). HTRF signals were calculated as the HTRF ratio (ratio of fluorescence measured at 665 nm and 620 nm)×104 (thereby using the signal at 620 nm as an internal standard).
IC50 values were determined using 3- or 4-parameter logistic equation using GraphPad Prism version 6.00. The reference compound, A027, was used as a positive control for each plate.
In general terms: Time-resolved FRET reads energy transfer from a long-lived donor to a nearby acceptor.

In the next assay the target is T237M hALPK1 mutant (Homo sapiens (Human), UniProt Q96QP1, T237M). Nature of the assay: Inhibition of IL-8 secretion in HEK293 cells (A2) stably expressing T237M hALPK1 mutant. The settings on record: 40 hours with compound, IL-8 ELISA, relative to wild-type HEK293 cells, read-out: Half maximal inhibitory concentration (IC50) of IL-8 secretion in cells expressing T237M mutant. Format: cell-based. An excerpt:
(§1) Activating mutations in ALPK1 are associated with diseases and disorders such as cancer, spiroandenoma, spiroandenocarcinoma, ROSAH syndrome, and PFAPA syndrome. We conducted further experiments to evaluate the ability of representative compounds to inhibit ALPK1 in the context of two activating mutations, T237M and V1092A. In preliminary experiments we determined that IL-8 protein secretion was elevated in cells transiently transfected with human ALPK1 expression vectors containing each of these activating mutations. Accordingly, we used IL-8 secretion as an indicator of activated ALPK1 inhibition in cells expressing these mutations.
(§2) HEK293 cells were cultured as described above prior to transient transfection with either empty vector or an expression vector encoding (i) human ALPK1 (hALPK1), (ii) hALPK1 with the T237M activating mutation (hALPK1-T237M) (iii) hALPK1 with the V1092A activating mutation (hALPK1-V1092A), or (iv) a kinase dead ALPK1 mutant (hALPK1-T237M-D1194S). Transfection was performed according to manufacturer's protocols (Lipofectamine™ 3000, ThermoFisher). Transfected cells were selected, seeded onto 96-well plates and treated with serial dilutions of the test compounds for 6.5 hr. Following treatment, cell viability was determined using a luminescent cell viability assay (Cell Counting-Lite Assay or “CCL Assay” from Vazyme Biotech Co., Ltd.) and cell free supernatants were collected and analyzed for IL-8 protein by IL-8 ELISA as described above. […] As shown in the figure, very little IL-8 was detectable in cells transfected with any of the empty vector, hALPK1, or the kinase dead hALPK1 mutant. In contrast, both of the activating mutations in hALPK1 induced significant IL-8 secretion.
Next, we tested a representative set of compounds for inhibition of IL-8 secretion in cells expressing each of the activating ALPK1 mutants, T237M and V1092A. […] For the T237M mutant study, we produced an HEK293 cell line (“A2”) stably expressing the T237M hALPK1 mutant. A2 cells were cultured in the presence of test compound for 40 hours total. Fresh medium and compound were added at 24 hours. Cell viability and IL-8 secretion were determined 16 hours after the second addition of compound, using the CCL assay and IL-8 ELISA as described above.

Assay [1] deals with ALPK1-dependent NFκB reporter gene activation. Put plainly: NFκB gene reporter alkaline phosphatase assay in HEK293 G9 cells. The settings on record: Homo sapiens; HEK293 G9 cells stimulated with D-glycero-D-manno-6-fluoro-heptose-1β-S-ADP. Type of assay: cell-based. The method, then:
An alkaline phosphatase reporter assay system was used to measure inhibition of ALPK1-dependent NFκB reporter gene activation. Briefly, HEK293 cells stably expressing an NF-kB reporter (referred to herein as “G9 cells”) were maintained in DMEM as described above. For the assay, cells were seeded into 96-well plates at a density of 10,000 cells/well in Freestyle™ 293 Expression Medium (ThermoFisher), and allowed to attach overnight. Cells were pretreated with serially diluted compounds for 30 min and then stimulated with D-glycero-D-manno-6-fluoro-heptose-1β-S-ADP. […] NFkB gene activation was detected using the chromogenic substrate, para-nitrophenyl phosphate (pNPP) according to the manufacturer's protocols (pNPP Phosphatase Assay, Beyotime Biotechnology).

The target in a further assay is hALPK1-V1092A (Homo sapiens (Human), UniProt Q96QP1, V1092A). Nature of the assay: Inhibition of IL-8 secretion in HEK293 cells transiently transfected with hALPK1-V1092A. Format: cell-based. The settings on record: transient transfection, 24 hours with compound, IL-8 ELISA, relative to wild-type HEK293 cells; read-out: Half maximal inhibitory concentration (IC50) of IL-8 secretion in cells expressing V1092A mutant.
Chain of hALPK1-V1092A (Q96QP1 whole entry V1092A): as the sequence (Q96QP1 whole entry) above, with V1092A counted along it
Description: as §1, §2
For the V1092A mutant study shown in Table 4, HEK293 cells were transiently transfected with hALPK1-V1092A or hALPK1 (wildtype) expression vectors and then treated with test compounds for 24 hours. Fresh medium and compound were added at 18 hours.
A general note: ELISA stands for enzyme-linked immunosorbent assay.

The test system of assay [2] is Female MRL/MpJ-faslpr/J mice. Put plainly: Efficacy study in SLE animal model. Format: in vivo, mouse. The settings on record: 50 mg/kg PO QD. The method, then:
A mouse model of systemic lupus erythematosus (SLE) was used to evaluate the ability of ALPK1 inhibitors to treat this condition. Female MRL/MpJ-faslpr/J mice were treated with test compound (T007) for 9 weeks. At about 13 weeks of age (study day 0), female mice were randomized into two treatment groups of 10 mice per group, and daily (QD) oral (PO) treatment with vehicle (5% PEG400, 95% methylcellulose [MC]) or the test compound, T007 (50 mg/kg) was initiated. The animals were euthanized for necropsy and tissue collection at age 22 weeks.

The test system of another assay is SD rat. Put plainly: Efficacy study in sepsis induced acute kidney injury animal model (cecal ligation and puncture). Format: in vivo. The settings on record: 20 mg/kg 2 hours prior to surgery, 24 hours post-surgery. From the text: Polymicrobial sepsis induced by cecal ligation and puncture (CLP) is the most frequently used model because it closely resembles the progression and characteristics of human sepsis. We used this model system to evaluate the effects of the compound T007 in sepsis. Briefly, the SD rat cecum was ligated with sterile silk thread, and then cecum was punctured twice with a needle, gently squeezed to express a small amount of fecal material, then the abdominal incision was closed. The test compound, T007 (20 mg/kg) was administered 2 hours prior to the surgery. 24 hours post-surgery, survival was recorded, plasma was collected for MCP-1 analysis, and kidneys were collected for gene expression analysis by Q-PCR.

Setting [3] is: kidney histopathology (right kidneys), vs vehicle.

Chain of T237M hALPK1 mutant (Q96QP1 whole entry T237M): as the sequence (Q96QP1 whole entry) above, with T237M counted along it

`C#Cc1cc(F)cc2sc(NC(=O)c3c(F)ccc(N4CCNCC4)c3F)nc12` [Compound T064, N-(4-ethynyl-6-fluorobenzo[d]thiazol-2-yl)-2,6-difluoro-3-(piperazin-1-yl)benzamide]: the values for the IC50 (against ALPK1; on T237M hALPK1 mutant; in assay [1]) were 51 nM, 1690 nM and 1030 nM, respectively.

`COc1cccc2sc(NC(=O)c3c(F)cc(N4CCNCC4)cc3F)nc12` [Compound T017, 2,6-difluoro-N-(4-methoxybenzo[d]thiazol-2-yl)-4-(piperazin-1-yl)benzamide hydrochloride]: the IC50 was 14 nM against ALPK1, 5030 nM at hALPK1-V1092A, 1470 nM at T237M hALPK1 mutant and 690 nM in assay [1].

As for `O=C(Nc1nc2c(Br)cccc2s1)c1c(F)cc(N2CCNCC2)cc1F` [Compound T019, N-(4-bromobenzo[d]thiazol-2-yl)-2,6-difluoro-4-(piperazin-1-yl)benzamide hydrochloride], the IC50 against ALPK1 worked out at 11 nM; on hALPK1-V1092A, 3170 nM; at T237M hALPK1 mutant it was 668 nM; in assay [1], 760 nM.

For `C#Cc1cccc2sc(NC(=O)c3c(F)ccc(N4CCNCC4)c3F)nc12` [Compound T060, N-(4-ethynylbenzo[d]thiazol-2-yl)-2,6-difluoro-3-(piperazin-1-yl)benzamide], the IC50 was 44 nM against ALPK1, 5380 nM at hALPK1-V1092A, 2140 nM at T237M hALPK1 mutant and 1250 nM in assay [1].

Consider `C#Cc1cccc2sc(NC(=O)c3c(F)cc(N4CCN(C)CC4)cc3F)nc12` [Compound T047, N-(4-ethynylbenzo[d]thiazol-2-yl)-2,6-difluoro-4-(4-methylpiperazin-1-yl)benzamide], for which the IC50 at ALPK1 was 13 nM; at hALPK1-V1092A, 1810 nM; on T237M hALPK1 mutant it was 635 nM; in assay [1] it was 810 nM.

Consider `C#Cc1cccc2sc(NC(=O)c3c(F)cc(N4CCNCC4)cc3F)nc12` [Compound T007, N-(4-ethynylbenzo[d]thiazol-2-yl)-2,6-difluoro-4-(piperazin-1-yl)benzamide], for which the IC50 turned out to be 4 nM against ALPK1, 409 nM on hALPK1-V1092A, 68.3 nM at T237M hALPK1 mutant and 470 nM in assay [1]. Besides, the “Effects on SLE by proteinuria, serum anti-dsDNA antibody levels and kidney histopathology” value in assay [2] (age 13 to 22 weeks) is given as “statistically significant beneficial effects”. Moreover, the “Urine protein score reduction in AUC” value in assay [2] (age 13 to 22 weeks, vs vehicle, p=0.100) came to 34%. The compound also came in with a Crescent scores reduction in assay [2] (setting [3]) of 62%. The compound further showed a Glomerulus diameters reduction in assay [2] (setting [3]) of 38%. Besides, in assay [2] (setting [3]), the “Protein cast scores reduction” value is given as 70%. Moreover, in assay [2] (mouse age 21 weeks, vs vehicle), the “Urine protein scores reduction” value amounted to 55%. Also, the “Summed kidney scores reduction” value in assay [2] (vs vehicle) came to 34%. Moreover, the Survival rate result with SD rat was “improved the survival rate”. Besides, the “Plasma MCP-1 concentration by ELISA” value with SD rat (p<0.001 vs CLP-Vehicle) is “improved”. For the same compound, the “Kidney proinflammatory gene expression (IL6, TNFa, IL-1b, CCl2, KC) by Q-PCR” value with SD rat (p<0.05 vs CLP-Vehicle) is given as “inhibited”.

For `COc1cccc2sc(NC(=O)c3c(F)cc(N4CCC(O)C4)cc3F)nc12` (stereo not drawn) [Compound T027, 2,6-difluoro-4-(3-hydroxypyrrolidin-1-yl)-N-(4-methoxybenzo[d]thiazol-2-yl)benzamide], the results for the IC50 (at ALPK1; in assay [1]) were 1170 nM and 3650 nM, respectively.

Consider `COc1cccc2sc(NC(=O)c3c(F)cc(-c4cccc(C(=O)O)c4)cc3F)nc12` [Compound T003, 3′,5′-difluoro-4′-((4-methoxybenzo[d]thiazol-2-yl)carbamoyl)-[1,1′-biphenyl]-3-carboxylic acid], for which the IC50 was determined as 159 nM at ALPK1 and 1490 nM in assay [1].

Consider `COc1cccc2sc(NC(=O)c3c(Cl)cc(N4CCNCC4)cc3Cl)nc12` [Compound T008, 2,6-dichloro-N-(4-methoxybenzo[d]thiazol-2-yl)-4-(piperazin-1-yl)benzamide], for which the figures for the IC50 (on ALPK1; in assay [1]) were 57 nM and 1950 nM, respectively.

On to `CC#Cc1cccc2sc(NC(=O)c3c(F)cc(N4CCNCC4)cc3F)nc12` [Compound T049, 2,6-difluoro-4-(piperazin-1-yl)-N-(4-(prop-1-yn-1-yl)benzo[d]thiazol-2-yl)benzamide], for which the IC50 on ALPK1 was determined as 43 nM; in assay [1], 2100 nM.

As to `C#Cc1cccc2sc(NC(=O)c3c(F)cc(N4CCNC[C@@H]4C)cc3F)nc12` [Compound T054, (S)-N-(4-ethynylbenzo[d]thiazol-2-yl)-2,6-difluoro-4-(2-methylpiperazin-1-yl)benzamide], the IC50 at ALPK1 was 36 nM; on hALPK1-V1092A, 226 nM; on T237M hALPK1 mutant, 225 nM; in assay [1], 270 nM.
